In patent publication US20180311236A1 (AB SCIENCE, priority 2015, published 2018):

Legend:
C57BL/6 mice = experiment: Mortality after MPTP intoxication; type: in vivo, mouse; details: 24 hours after treatment by the MPTP (4 injections of 20 mg/kg at 2-hour intervals)
Description: Brain samples were collected after mice anesthesia and sacrifice.

[1] = tested on: Tyrosine Hydroxylase in total brain protein extract; experiment: MPTP mouse model of Parkinson's disease: tyrosine hydroxylase western blotting; details: MPTP alone (4 × 20 mg/kg, solvent-treated), control = 100
Description: Each treated group included 10 animals for the MPTP intoxicated groups and 5 animals for the controls.
(§1) C57BL/6J mice are intoxicated with MPTP using an acute protocol, as described hereafter. On the day of MPTP exposure each mouse received 4 injections of MPTP solution (20 mg/kg) at 2-hour intervals for 1 day.
Before brain extraction mice were perfused with 0.9% NaCl 2.6 mM EDTA solution.
And the right brain was immediately frozen in nitrogen liquid for protein analysis. The proteins were extracted with the homogenizer ultra turrax IKA-T10 basic system and quantified using the BCA test (bicinchoninic acid assay).
30 μg of total brain protein were used for western blot analysis using 1:1000 dilution anti-tyrosine hydroxylase rabbit polyclonal antibody (Cat #AB152, Millipore) followed by 1:10000 horseradish peroxidase-conjugated anti-rabbit antibody (Jakson ImmunoResearch). Antibody to actin (Cat #A5316, Sigma Aldrich) were used as loading control followed by 1:10000 horseradish peroxidase-conjugated anti-mouse antibody (Jakson ImmunoResearch). Immunoreactive bands were detected using enhanced chemiluminescent reagents (GE Healthcare, Amersham, UK). Signal intensity was calculated using the Image J software.

[2] = tested on: human cord blood mast cells; details: cited from earlier work
[3] = tested on: tyrosine hydroxylase in coronal brain sections; experiment: MPTP mouse model of Parkinson's disease: tyrosine hydroxylase immunohistochemistry; type: in vivo; details: immunohistochemistry on 5 μm-thick coronal sections; MPTP + masitinib 2 × 5 mg/kg
[4] = tested on: Tyrosine Hydroxylase in total brain protein extract; experiment: MPTP mouse model of Parkinson's disease: tyrosine hydroxylase ELISA assay
Description: (§2) Each treated group included 10 animals for the MPTP intoxicated groups and 5 animals for the controls. The loss of tyrosine hydroxylase expression, indicative of dopaminergic neuron destruction, was analyzed by western blotting, immunohistochemistry and ELISA assay.
The mice were treated orally by gavage with 0.1 ml corresponding to 25 mg/kg in a 24 g mouse.
as §1
(§3) Dosing was done 2 times per day at 6-hour interval starting day 7 before intoxication and stopping 7 days after MPTP administration. […] Before brain extraction mice were perfused with 0.9% NaCl 2.6 mM EDTA solution.
(§4) The treatment started 7 days before MPTP administration and continued 7 days after.
(§5) After mouse sacrifice and dissection, the left brain was submerged in 4% paraformaldehyde in PBS (phosphate buffered saline) solution for paraffin embedding and then cut into 5 μM-thick coronal section. And the right brain was immediately frozen in nitrogen liquid for protein analysis. The proteins were extracted with the homogenizer ultra turrax IKA-T10 basic system and quantified using the BCA test (bicinchoninic acid assay).
The microliter plate wells were coated overnight at 4° C. with 5μg of total brain protein extract. […]

[5] = tested on: Ba/F3 cells expressing PDGFR-α; details: read-out: IC50, PDGF-BB-stimulated proliferation and PDGFR-α tyrosine phosphorylation; cited from earlier work
[6] = tested on: Monoamine oxidase activity from total brain protein extract; experiment: MPTP mouse model: monoamine oxidase fluorometric assay; details: MPTP + masitinib 2 × 5 mg/kg, control = 100, MPTP = 108
Description: as §2
This stock solution was defrosted before treatment of mice. The mice were treated orally by gavage with 0.1 ml corresponding to 25 mg/kg in a 24 g mouse.
as §1, §3, §4, §5

SMILES	mortality (C57BL/6 mice)	Relative average expression of tyrosine hydroxylase [1]	FcϵRI-mediated degranulation [2]	in situ staining of tyrosine hydroxylase [3]	Mean expression of tyrosine hydroxylase ([4]; MPTP + masitinib 2 × 5 mg/kg per os, day -7 to day 7, control = 0.275, MPTP = 0.175, 5 mg/kg)	Mean expression of tyrosine hydroxylase ([4]; masitinib alone 2 × 30 mg/kg per os, no MPTP, control = 0.275, 30 mg/kg)	IC50 [5] [nM]	Monoamine oxidase fluorometric assay [6]
CN1CC=C(c2ccccc2)CC1 [MPTP, 1-methyl-4-phenyl-1,2,3,6-tetrahydropyridine]	No mortality	77						
Cc1ccc(NC(=O)c2ccc(CN3CCN(C)CC3)cc2)cc1Nc1nc(-c2cccnc2)cs1 [Masitinib, 4-(4-methylpiperazin-l-ylmethyl)-N-[4-methyl-3-(4-pyridin-3ylthiazol-2-ylamino)phenyl]benzamide]			inhibition	positive effect	significant attenuation	did not modify significantly	300 ± 5	maintained
